Measured values published in article PMC5485019 (2017).

Assays:
[1] = tested on: F10T (DNA, hairpin, hexaethylene glycol (HEG) linker between nucleotides 10 and 11) TATAGCTATATATAGCTATA; assay: FRET melting; settings: 10 mM KCl, 90 mM LiCl, 10 mM Li cacodylate, 200 nM DNA
[2] = tested on: FMycT (F-Myc-T) (DNA, G4) TTGAGGGTGGGTAGGGTGGGTAA; assay: FRET melting; settings: 1 mM KCl, 99 mM LiCl, 10 mM Li cacodylate, 200 nM DNA
[3] = tested on: F21T (DNA, G4) GGGTTAGGGTTAGGGTTAGGG; assay: FRET melting; settings: 10 mM Li cacodylate, 1 μM ligand, 200 nM DNA
[4] = tested on: F10T (DNA, hairpin, hexaethylene glycol (HEG, (-CH2CH2O-)6) linker between nucleotides 10 and 11) TATAGCTATATATAGCTATA; assay: FRET melting; settings: 10 mM KCl, 90 mM LiCl; 10 mM Li cacodylate; 1 μM ligand, 200 nM DNA
[5] = tested on: F21T (DNA, G4) GGGTTAGGGTTAGGGTTAGGG; assay: FRET melting; settings: 10 mM Li cacodylate, 200 nM DNA
[6] = tested on: FMycT (F-Myc-T) (DNA, G4) TTGAGGGTGGGTAGGGTGGGTAA; assay: FRET melting; settings: 1 mM KCl, 99 mM LiCl; 10 mM Li cacodylate; 1 μM ligand, 200 nM DNA
[7] = tested on: telo23 (DNA, G4) TAGGGTTAGGGTTAGGGTTAGGG; assay: ITC; settings: K+ (100 mM potassium phosphate); pH 7.4, 25 °C (298 K); 15 µM DNA; bracket = 68.3 % confidence interval
[8] = tested on: telo23 (DNA, G4) TAGGGTTAGGGTTAGGGTTAGGG; assay: CD titration; settings: Na+ (100 mM sodium phosphate); pH 7.4 (main text 7.2); 4.22 µM DNA; antiparallel shifts towards hybrid
[9] = 10 mM KCl, 90 mM LiCl, 1 μM ligand
[10] = 100 mM NaCl, 1 μM ligand, no stabilization up to 10 μM
[11] = 100 mM NaCl, no stabilization up to 10 μM
[12] = 1 µM ligand, no stabilization up to 10 µM

ΔT max ([3]; 10 mM KCl, 90 mM LiCl) [°C] | ΔT max [4] [°C] | ΔT max [6] [°C] | K a [7] | ΔT max [3, 11] [°C] | Structure (SMILES) | further results
2.3±0.5 |  |  |  |  | CN(C)CCCN1C(=O)c2ccc3c4c(ccc(c24)C1=O)C(=O)N(CCCN(C)C)C3=O | ΔT max ([1]; 1 μM ligand): 1.1±0.1 °C; ΔT max ([2]; 1 μM ligand): 3.9±0.2 °C; ΔT max ([3]; 100 mM NaCl): −1.5±0.2 °C
 | 0.3±0.2 | 0.5±0.3 | 1.03 (0.865,1.23) × 10^6 M^-1 |  | CN1CCN(CCCN2C(=O)c3ccc4c5c(ccc(c35)C2=O)C(=O)N(CCCN2CCN(C)CC2)C4=O)CC1 | ΔT max [5, 9]: 9.8±0.6 °C; ΔT max [5, 10]: −2.3±0.3 °C; binding [8]: yes
 |  |  |  |  | C[n+]1ccc(-c2c3nc(c(-c4cc[n+](C)cc4)c4ccc([nH]4)c(-c4cc[n+](C)cc4)c4nc(c(-c5cc[n+](C)cc5)c5ccc2[nH]5)C=C4)C=C3)cc1 | ∆Tmax [5, 9]: 27.4 ± 0.4 °C
3.7±0.3 | 0.1±0.1 | 1.8±0.8 | 2.16 (1.85,2.52) × 10^6 M^-1 |  | Cn1cc[n+](CCCN2C(=O)c3ccc4c5c(ccc(c35)C2=O)C(=O)N(CCC[n+]2ccn(C)c2)C4=O)c1 | ΔT max ([3]; 100 mM NaCl): −0.5±0.4 °C
1.3±0.4 | 0.4±0.2 | 1±0.4 |  | −0.6±0.5 | Cn1cc[n+](CCN2C(=O)c3ccc4c5c(ccc(c35)C2=O)C(=O)N(CC[n+]2ccn(C)c2)C4=O)c1 | 
2.9±0.3 | 0.1±0.2 | 0.9±0.7 |  | −1.5±0.4 | Cn1cc[n+](C[C@H]2O[C@@H](OCCN3C(=O)c4ccc5c6c(ccc(c46)C3=O)C(=O)N(CCO[C@@H]3O[C@H](C[n+]4ccn(C)c4)[C@@H](O)[C@H](O)[C@H]3O)C5=O)[C@H](O)[C@@H](O)[C@@H]2O)c1 | 
 |  |  | 1.30 (1.02,1.64) × 10^6 M^-1 |  | Cn1cc[n+](C[C@H]2O[C@H](OCCN3C(=O)c4ccc5c6c(ccc(c46)C3=O)C(=O)N(CCO[C@H]3O[C@H](C[n+]4ccn(C)c4)[C@@H](O)[C@H](O)[C@@H]3O)C5=O)[C@@H](O)[C@@H](O)[C@@H]2O)c1 | ΔT max ([1]; 1 µM ligand, 3.2 °C at 10 µM): −0.1±0.1 °C; ΔT max [5, 9]: 10.1±0.3 °C; ΔT max [5, 10]: −1.4±0.3 °C; ΔT max ([2]; 1 µM ligand, 10.5 °C at 10 µM): −0.3±0.7 °C; binding [8]: yes
 |  |  |  | −0.1±0.5 | O=C1c2ccc3c4c(ccc(c24)C(=O)N1CCO[C@@H]1O[C@H](CO)[C@@H](O)[C@H](O)[C@H]1O)C(=O)N(CCO[C@@H]1O[C@H](CO)[C@@H](O)[C@H](O)[C@H]1O)C3=O | ΔT max [1, 12]: 0.5±0.2 °C; ΔT max ([5]; 10 mM KCl, 90 mM LiCl, 1 µM ligand, no stabilization up to 10 µM): 0.4±0.1 °C; ΔT max [2, 12]: −0.3±0.4 °C
